The test system of this assay is isolation induced aggressive behaviour (male NMRI mice). Description: Isolation induced aggressive behaviour test. It counts as in vivo. The following applies: Mus musculus, sc, 0.5 hour after drug administration, read-out: ED50 (dose inhibiting aggressive behaviour among 50 percent of the pairs). The source says: This type of aggression is interesting because it is known that this kind of emotional behaviour might be located in limbic structures in the brain (MacLean, P. D., Psychosom. Med. 11, 338 (1949)).
Every week male NMRI mice, weighing 20-22 g, were isolated in Makrolon cages for three weeks with diet and water ad libitum. A piece of cardboard was placed between the cages to prevent visual contact.
To test aggressiveness the mice were paired in a neutral area, a beaker (14 cm high and diameter 14 cm). A pair is considered aggressive if both the animals show clear signs of fighting within 5 minutes. This fighting is characterized by biting and vocalization. A soon as fighting is seen, the mice are separated and brought to their home cage (every second mouse is marked). […] Animals showing no aggression are discarded.
The test substance is administered s.c. (0.2-0.4 ml/20 g). The mice are paired 0.5 hour after the injection for trials of 5 minutes' duration.
The ED50 -value (mg/kg) reported is the dose inhibiting aggressive behaviour among 50 percent of the pairs 0.5 hour after drug administration.

Structures can show the parent of a compound that is named as a salt.

Turning to `CCNC(=O)N1CCN(CCCOc2ccc(F)cc2)CC1` [1:3, 4-/3-(p-fluorophenoxy)proyl/-N-ethyl-1-piperazinecarboxamide hydrochloride], the ED50 (as a rule, the dose that gives a 50% effect, or the effect in half of the subjects) is 5 mg/kg.

In the case of `CSc1ccc2c(c1)N(CCC1CCCCN1C)c1ccccc1S2` (centres unmarked) [Thioridazine], the ED50 amounted to 5 mg/kg.

Values taken from patent US4778789A, “Piperazinecarboxamides having a phenoxyalkyl or thiophenoxyalkyl side chain” (priority 1985, dated 1988).
